{"source": "paper PMC11945236", "about": "(Molecules, 2025)", "key": {"SARS-CoV-2 M^pro": {"target": "SARS-CoV-2 M^pro (Severe acute respiratory syndrome coronavirus 2, UniProt P0DTD1)", "experiment": "biochemical", "details": "for inhibition at 10 µM: read-out: Enzymatic Inhibition Rate (%), primary screening, 10 μM, incubation for 5 min"}, "[1]": {"experiment": "MTT cytotoxicity assay, HFF-1 cells", "format": "cell-based", "details": "human", "method": "(§1) The human HFF-1 and monkey Vero E6 cells were provided by Cell Bank in Shanghai, Chinese Academy of Sciences. HFF-1 cells were cultured in DMEM complete medium containing 15% FBS, 100 U/mL penicillin, and 100 μg/mL of streptomycin, while Vero E6 cells were maintained in DMEM complete medium containing 10% FBS. They were maintained at 37 °C in a humidified atmosphere with 5% CO2 (V/V).\n(§2) The in vitro cytotoxicity of compounds was determined by the standard MTT assay according to our reported procedure. Briefly, well-cultured cells were seeded in 96-well plates at a density of 5 × 10^3 cells per well. After being cultured overnight in a 37 °C humidified incubator (5% CO2, V/V), cells were incubated with tested compounds for 48 h. Then, cells in each well were treated with MTT in PBS (5 mg/mL) for 4 h at 37 °C, and formazan crystals in viable cells were dissolved by dimethyl sulfoxide (150 μL) at ambient temperature. The absorbance of solubilized formazan was measured by the Synergy multimode reader (BioTek, Winooski, VT, American) at the wavelength of 490 nm."}, "[2]": {"experiment": "MTT cytotoxicity assay, Vero E6 cells", "format": "cell-based", "details": "African green monkey", "method": "as §1, §2"}, "[3]": {"details": "experimental value; cited from earlier work"}, "adenovirus": {"tested_on": "adenovirus", "details": "concentrations from 0.0156 μM to 1 μM; cited from earlier work"}, "[4]": {"tested_on": "SARS-CoV-2 N proteins in Vero E6 cells", "experiment": "Immunofluorescence assay for viral N proteins in infected Vero E6 cells", "format": "cell-based", "details": "10 μM, 48 h", "quoted_text": "Human Vero E6 cells were infected by live SARS-CoV-2 at an MOI value of 0.01. […] Then, cells in each group were collected and the immunofluorescence assay was used to detect the expression of viral N protein, and the result was analyzed by high-content screening."}}, "data": [{"compound": "COc1cc([C@@H](CC=C(C)C)OCCC(C)C)c(OC)c2c1/C(=N/O)C=C/C2=N\\O", "note": "[Compound 14, (1E,4E)-6-((R)-1-(Isopentyloxy)-4-methylpent-3-en-1-yl)-5,8-dimethoxy Naphthalene-1,4-dione Dioxime]", "values": [{"measurement": "IC50", "setting": "SARS-CoV-2 M^pro", "value": "22.8 ± 4.61", "unit": "µM"}]}, {"compound": "COc1cc(C(CC=C(C)C)OC(=O)C=Cc2ccccc2)c(OC)c2c1/C(=N/O)C=C/C2=N\\O", "note": "(stereo not shown) [Compound 12, 1-((5E,8E)-5,8-bis(Hydroxyimino)-1,4-dimethoxy-5,8-dihydronaphthalen-2-yl)-4-methylpent-3-en-1-yl Cinnamate]", "values": [{"measurement": "inhibition at 10 µM", "setting": "SARS-CoV-2 M^pro", "value": 28, "unit": "%"}]}, {"compound": "COc1cc(C(CC=C(C)C)OCCCCCCCCO)c(OC)c2c1/C(=N/O)C=C/C2=N\\O", "note": "(stereo not shown) [Compound 10, (1E,4E)-6-(1-((8-Hydroxyoctyl)oxy)-4-methylpent-3-en-1-yl)-5,8-dimethoxy Naphthalene-1,4-dione Dioxime]", "values": [{"measurement": "inhibition at 10 µM", "setting": "SARS-CoV-2 M^pro", "value": 11.3, "unit": "%"}]}, {"compound": "COc1cc(C(CC=C(C)C)OCCCCC(C)O)c(OC)c2c1/C(=N/O)C=C/C2=N\\O", "note": "(stereo not shown) [Compound 9, (1E,4E)-6-(1-((5-Hydroxyhexyl)oxy)-4-methylpent-3-en-1-yl)-5,8-dimethoxy Naphthalene-1,4-dione Dioxime]", "values": [{"measurement": "inhibition at 10 µM", "setting": "SARS-CoV-2 M^pro", "value": 10.7, "unit": "%"}]}, {"compound": "COc1cc(C(CC=C(C)C)OCCC(C)C)c(OC)c2c1C(=O)C=CC2=O", "note": "(stereo not shown) [Compound 4, 6-(1-(Isopentyloxy)-4-methylpent-3-en-1-yl)-5,8-dimethoxy Naphthalene-1,4-dione]", "values": [{"measurement": "inhibition at 10 µM", "setting": "SARS-CoV-2 M^pro", "value": 10.6, "unit": "%"}]}, {"compound": "CC(C)=CC[C@@H](O)C1=CC(=O)c2c(O)ccc(O)c2C1=O", "note": "[Shikonin]", "values": [{"measurement": "CC50 at 48 h", "setting": "[1]", "value": "1.31 ± 0.09", "unit": "µM"}, {"measurement": "CC50 at 48 h", "setting": "[2]", "value": "1.48 ± 0.06", "unit": "µM"}, {"measurement": "inhibition at 10 µM", "setting": "SARS-CoV-2 M^pro", "value": 51.4, "unit": "%"}, {"measurement": "LogP", "setting": "[3]", "value": 1.08}, {"measurement": "inhibitory effects against adenovirus", "setting": "adenovirus", "value": "showed inhibitory effects against adenovirus"}, {"measurement": "blue fluorescence (DAPI) from the live cell nucleus", "setting": "[4]", "value": "almost invisible"}, {"measurement": "expression of viral N proteins versus untreated cells", "setting": "[4]; MOI 0.01", "value": "significantly decreased expression of viral N proteins"}]}, {"compound": "COc1cc(C(CC=C(C)C)OCCC(C)C)c(OC)c2c1/C(=N/O)C=C/C2=N\\O", "note": "(stereo not shown) [Compound 5, (1E,4E)-6-(1-(Isopentyloxy)-4-methylpent-3-en-1-yl)-5,8-dimethoxynaphthal-ene-1,4-dione Dioxime]", "values": [{"measurement": "inhibition at 10 µM", "setting": "SARS-CoV-2 M^pro", "value": "~36", "unit": "%"}]}, {"compound": "COc1cc(C(CC=C(C)C)OCCC(C)C)c(OC)c2c1/C(=N/OC(=O)c1ccccc1)C=C/C2=N\\OC(=O)c1ccccc1", "note": "(stereo not shown) [Compound 6, (1E,4E)-6-(1-(Isopentyloxy)-4-methylpent-3-en-1-yl)-5,8-dimethoxynaphthalene-1,4-dione O,O-Dibenzoyl Dioxime]", "values": [{"measurement": "Enzymatic Inhibition Rate (%)", "setting": "SARS-CoV-2 M^pro; primary screening, 10 μM, incubation for 5 min", "value": "complete loss of activity"}, {"measurement": "inhibition at 10 µM", "setting": "SARS-CoV-2 M^pro", "value": -6.9, "unit": "%"}]}, {"compound": "COc1cc([C@H](CC=C(C)C)OCCC(C)C)c(OC)c2c1/C(=N/O)C=C/C2=N\\O", "note": "[Compound 15, (1E,4E)-6-((S)-1-(Isopentyloxy)-4-methylpent-3-en-1-yl)-5,8-dimethoxy Naphthalene-1,4-dione Dioxime]", "values": [{"measurement": "IC50", "setting": "SARS-CoV-2 M^pro", "value": "12.5 ± 3.59", "unit": "µM"}]}]}
